Assay results taken from US5935829A, “Mutation assays involving blood cells that metabolize toxic substances” (priority 1992, dated 1999).
Where two headings read alike, the source gives them in different places.

Key:
[1] = tested on: AHH-1 cells
[2] = in vitro; details: human, ahh-1 cells, RELATIVE SURVIVAL; for viability at 48 h, 300 µM: 300 μM × 48 hours
[3] = tested on: AHH-1 cells; assay: Cell clumping at concentrations of 6-TG in microtiter wells; assay type: cell-based, human
Description: When applied at relatively high concentrations to a colony of cells, 6-thioguanine (6-TG) causes the cells to clump together, rendering it difficult or impossible for live mutant cells to survive and create colonies. […] […]. Subsequent routine work was done using 0.5 μg/ml of 6-TG.

[4] = tested on: 6-TG resistant AHH-1 cells
[5] = tested on: 6-TG resistant AHH-1 clones; assay: Plating efficiency of clones resistant to 6-TG; assay type: cell-based, human; details: for Plating Efficiency with 6-TG & 2000 c/w: with 2000 wild type cells per well
[6] = tested on: wild type AHH-1 cells; assay: Plating efficiency of wild type cells with 6-TG; assay type: cell-based, human
[7] = tested on: AHH-1 cells; assay: Phenotypic expression of ICR-191 induced mutation; assay type: cell-based, human
Description: AHH-1 cell cultures were contacted with ICR-191 (Polysciences Inc, Warrington Pa.) which is a known mutagen comprising an acridine mustard derivative, at varying concentrations ranging up to 1.0 μM, for 24 hours. The cultures were resuspended in growth medium and allowed to grow. At different times after treatment, the cells were contacted with 6-TG to determine the mutant fraction.

[8] = in vitro; assay type: cell-based; details: human, ahh-1 cells, read-out: Relative Survival
Text: (§1) Preferential survival during toxic treatment tested by exposing two sets of cells to varying concentrations of ICR-191.

[9] = tested on: 6-TG^r AHH-1 cells; assay: in vitro; assay type: cell-based, human; details: varying concentrations of ICR-191
Text: as §1

[10] = in vitro; assay type: cell-based, human; details: human, 6-tg resistant ahh-1 cells, 6-TG^r AHH-1 cells, read-out: Relative Survival
Text: as §1

[11] = 25 μM × 48 hours, induction none
[12] = 50 μM × 48 hours, induction none
[13] = 75 μM × 48 hours, induction none
[14] = 100 μM × 48 hours, induction none
[15] = 10 μM × 48 hours, induction BNF
[16] = 100 μM × 48 hours, induction BNF
[17] = 600 μM × 48 hours, induction none

CC(=O)Nc1ccc2c(c1)Cc1ccccc1-2 [2AAF, 2-acetoaminofluorene]
MUTANT FRACTION × 10^6, MEAN ± STD.DEV. [1, 11]: 4.8 ± 1.2 × 10^6 | MUTANT FRACTION × 10^6, MEAN ± STD.DEV. [1, 12]: 3.8 ± 1.1 × 10^6 | MUTANT FRACTION × 10^6, MEAN ± STD.DEV. [1, 13]: 6.9 ± 1.7 × 10^6 | MUTANT FRACTION × 10^6, MEAN ± STD.DEV. [1, 14]: 7.7 ± 0.7 × 10^6 | viability at 48 h, 25 µM [2, 11]: 73% | viability at 48 h, 50 µM [2, 12]: 50% | viability at 48 h, 75 µM [2, 13]: 37% | viability at 48 h, 100 µM [2, 14]: 33%

Nc1nc2nc[nH]c2c(=S)[nH]1 [6-TG, 6-thioguanine]
cells per microtiter well that could be assayed ([3]; 0.5 μg/ml 6-TG): ≥ 20,000 cells per microtiter well | cells per microtiter well that could be assayed without clumping ([3]; 5 μg/ml 6-TG): about 2,000 cells per microtiter well | sensitivity to toxic effects of 6-TG ([4]; 6-TG resistant mutant AHH-1 population, up to 5 μg/ml, about two cells per well): not sensitive | growth rates with and without 6-TG ([4]; seven 6-TG resistant clones): comparable growth rates | Plating Efficiency in 5 μg/ml 6-TG at 2 cells/well ([5]; clone BP-3): 0.24 | Plating Efficiency with 6-TG & 2000 c/w ([5]; clone BP-3): 0.23 | Plating Efficiency in 5 μg/ml 6-TG at 2 cells/well ([5]; clone BP-4): 0.34 | Plating Efficiency with 6-TG & 2000 c/w ([5]; clone BP-4): 0.34 | Plating Efficiency in 5 μg/ml 6-TG at 2 cells/well ([5]; clone BP-5): 0.21 | Plating Efficiency with 6-TG & 2000 c/w ([5]; clone BP-5): 0.20 | Plating Efficiency in 5 μg/ml 6-TG at 2 cells/well ([5]; clone BP-6): 0.26 | Plating Efficiency with 6-TG & 2000 c/w ([5]; clone BP-6): 0.34 | Plating Efficiency in 5 μg/ml 6-TG at 2 cells/well ([5]; clone BP-7): 0.06 | Plating Efficiency with 6-TG & 2000 c/w ([5]; clone BP-7): 0.07 | Plating Efficiency in 5 μg/ml 6-TG at 2 cells/well [6]: < 10^-3 | Plating Efficiency with 6-TG & 2000 c/w ([6]; 2000 c/w): 10^-5

C/C=C(/C)C(=O)O[C@H]1CCN2CC=C(COC(=O)[C@@](O)([C@H](C)OC)C(C)(C)O)[C@H]12 [LSCP, lasiocarpine]
MUTANT FRACTION × 10^6, MEAN ± STD.DEV. [1, 15]: 3.9 ± 1 × 10^6 | MUTANT FRACTION × 10^6, MEAN ± STD.DEV. [1, 16]: 4.3 ± 1 × 10^6 | MUTANT FRACTION × 10^6, MEAN ± STD.DEV. [1, 14]: 5.4 ± 0.6 × 10^6 | MUTANT FRACTION × 10^6, MEAN ± STD.DEV. ([1]; 300 μM × 48 hours, induction BNF): 12.7 ± 2.1 × 10^6 | MUTANT FRACTION × 10^6, MEAN ± STD.DEV. ([1]; 300 μM × 48 hours, induction none): 6.2 ± 1.3 × 10^6 | MUTANT FRACTION × 10^6, MEAN ± STD.DEV. [1, 17]: 6.0 ± 1.4 × 10^6 | viability at 48 h, 10 µM [2, 15]: 103% | viability at 48 h, 100 µM [2, 16]: 91% | viability at 48 h, 100 µM [2, 14]: 130% | viability at 48 h, 300 µM ([2]; induction BNF): 81% | viability at 48 h, 300 µM ([2]; induction none): 89% | viability at 48 h, 600 µM [2, 17]: 82%

COc1ccc2nc3cc(Cl)ccc3c(NCCCNCCCl)c2c1 [ICR-191]
time to full expression of induced mutation ([7]; ICR-191 up to 1.0 μM, 24 hours): ≤ 6 days | mutant fraction stability after full expression ([7]; up to 14 days): remained relatively stable | viability at 24 h ([8]; 0.25 μg/ml at 24 hrs): 65% | viability at 24 h ([8]; 0.5 μg/ml at 24 hrs): 48% | viability at 24 h ([8]; 1.0 μg/ml at 24 hrs): 13% | MUTANT FRACTION × 10^6, MEAN ± STD.DEV. ([1]; 0.63 μM × 24 hours): 62 ± 11 × 10^6 | MUTANT FRACTION × 10^6, MEAN ± STD.DEV. ([1]; 1.25 μM × 24 hours): 116 ± 17 × 10^6 | MUTANT FRACTION × 10^6, MEAN ± STD.DEV. ([1]; 2.5 μM × 24 hours): 147 ± 28 × 10^6 | viability at 24 h, 0.63 µM ([2]; 0.63 μM × 24 hours): 65% | viability at 24 h, 1.25 µM ([2]; 1.25 μM × 24 hours): 48% | viability at 24 h, 2.5 µM ([2]; 2.5 μM × 24 hours): 13% | difference in survival rate between non-resistant and 6-TG resistant AHH-1 cells [9]: did not reach the level of statistical significance | viability at 24 h ([10]; 0.25 μg/ml at 24 hrs): 48% | viability at 24 h ([10]; 0.5 μg/ml at 24 hrs): 20% | viability at 24 h ([10]; 1.0 μg/ml at 24 hrs): 14%

c1ccc2c(c1)-c1cccc3cccc-2c13 [Fla, fluoranthene]
RELATIVE SURVIVAL ([1]; human, ahh-1 cells, 48 h, 40 µM): 0.70 | viability at 48 h, 10 µM [2]: 105% | viability at 48 h, 20 µM [2]: 93% | viability at 48 h, 40 µM [2]: 75% | viability at 48 h, 50 µM [2]: 67% | viability at 48 h, 100 µM [2]: 45%
